Entries after “also recorded” stand apart in the source; their conditions may differ.
How the values were obtained:
[1] = cited from earlier work
[2] = test system: phospho-Akt(ser473); assay: Western blot of Akt / phospho-Akt(ser473); format: cell-based
Experimental: Whole cell lysates were prepared by lysing floating and attached cells in Laemmli sample buffer and boiling the samples for 10 minutes. Proteins were separated by SDS-PAGE and transferred on PVDF membrane (Millipore). Western blotting was performed using antibodies against Akt, phospho-Akt (Ser473), GSK-3β, phospho-GSK-3β (Ser9) and phospho-EGF receptor Tyr(1068) (Cell Signalling Technology), Actin (clone AC-40; Sigma-Aldrich), PI3K p85α (clone 4/PI3-Kinase; BD Pharmingen), EGF receptor, Insulin receptor β and IGF-I receptor β (Santa Cruz Biotechnology), and Phospho-tyrosine (clone 4G10; Millipore). HRP-conjugated secondary antibodies were from Southern Biotechnology Associates, Promega, and Amersham Biosciences. The results were visualized using the ECL method (Amersham Biosciences) on x-ray film. The presented Western blot results are representative of at least three independent experiments. Densitometric analysis of Western blots was done using scanned films with the MCID M5+ software. The values were normalized to the untreated control sample, which was given the value 1. The histograms in FIG. 4 present a relative decrease in ratio of phosphorylated vs. non-phosphorylated protein compared to control cells.
LNCaP cells (+/−1 nM androgen) were treated with 0-100 μM enterolactone (ENL), matairesinol (MAT) or NTG for 1 hour prior to preparation of total cell lysates (FIG. 4A). The relative decrease in pAkt/Akt ratio was quantified from western blot analysis with Akt (60 kDa) and phospho-Akt(ser473) (Mean±SEM; n=4; Student's t-test *p<0.05, **p<0.01). Alternatively, androgen-deprived LNCaP cells were incubated with 100 μM NTG for 2 hours, fixed and labeled with Akt antibody followed by Alexa 546-conjugated secondary antibody. The samples were viewed at LSM 510 confocal microscope (63× oil objective, 543 nm excitation) (FIG. 4B). To examine the time-dependence of the observed inhibitory effect, LNCaP cells (+/−1 nM androgen) were incubated with 100 μM NTG for 0-8 hours after which total cell lysates were prepared. The western blot analysis with Akt, phospho-Akt(ser473), GSK-3β and phospho-GSK-3β(ser9) was quantified. The histogram presents a relative decrease in pAkt/Akt ratio (FIG. 4C.) or pGSK-3β/GSK-3β ratio (FIG. 4D.) compared to control cells (Mean±SEM; n=3). […]
Importantly, substitution with methyl group at position 8 further increases activity of dibenzylbutyrolactone lignans in sensitization of LNCaP prostate cancer cells to TRAIL-mediated apoptosis (FIG. 8). […] The samples were analyzed by flow cytometry and the fraction of sub-G0/G1 events (nuclear fragmentation) was detected as a measure of apoptotic cell death (mean±SEM; n=4). […]

[3] = test system: non-malignant prostate epithelial RWPE-1 cells; assay: Caspase-3 activation by flow cytometry in a non-malignant prostate cell line; format: cell-based; conditions: 40 μM NTG 1 h before izTRAIL in different concentrations, 20 h
Experimental: The LNCaP prostate cancer cells (clone FGC; EACC) were cultured in RPMI-1640 medium (Sigma-Aldrich) supplemented with 10% fetal calf serum (BioClear), 2 mM L-glutamin, 100 U/ml penicillin, 100 μg/ml streptomycin and 1 mM sodium pyruvate (Sigma-Aldrich). One day prior to treatment medium was changed to phenol red free RPMI-1640 (Gibco) with or without 1 nM synthetic androgen (Mibolerone). This medium was supplemented with 10% charcoal/dextran treated fetal bovine serum (Hyclone), L-glutamine, penicillin and streptomycin. SV40 transformed prostate epithelial RWPE-1 cell line was kindly provided by Professor Olli Kallioniemi. […]
Flow cytometric analysis of apoptosis with HTS platform was performed on cells that were plated on a 96-well plate as triplicate samples. […] After 10 minutes incubation at room temperature, the plate was analyzed with LSRII flow cytometer equipped with HTS platform (PE-A channel). […] The plate was analyzed with LSRII flow cytometer equipped with HTS platform (FSC, PE-A channel). […] Activated caspase-3 in cells was labeled with phycerythrin (PE)-conjugated antibody according to manufacturer's protocol (BD Pharmingen) and analyzed by FacsCalibur flow cytometer (FL-2, FSC). […]

[4] = LNCaP +/- androgen, 100 μM NTG 2 hours, then medium change

## COc1cc(CC2COC(=O)C2(O)Cc2ccc(O)c(OC)c2)ccc1O (stereo not drawn) [NTG, Nortrachelogenin]
[1]; in vivo
  conversion into the mammalian lignans: not known to be converted into the mammalian lignans, ENL or END
[1]; urine
  absorption and excretion: absorbed and excreted in urine as such
[2]; LNCaP +/- 1 nM androgen, 0-100 μM lignan, 1 hour (NTG also 100 μM, 0-8 hours)
  Akt phosphorylation (pAkt/Akt ratio): downregulates Akt and GSK-3β phosphorylation; also recorded: inhibit Akt phosphorylation yet more efficiently than ENL or MAT
[2]; [4]
  time after washout at which Akt activity starts returning: 10 min
  time after washout to total recovery of Akt activity: ≤ 1 h
[3]
  sensitization of non-malignant cells to TRAIL (caspase-3 activation): did not display any sensitization to TRAIL

Reference: patent publication US9168243B2, “Pharmaceutical compositions comprising 8-substituted dibenzylbutyrolactone lignans” (priority 2010, dated 2015)
